Like-named read-outs stand apart in the source and are kept apart here.
How the values were obtained:
[1] = test system: hTERT; test: Human cell line activity, hTERT; assay type: cell-based; settings: read-out: IC50 (µM) hTERT
[2] = test system: P. falciparum 3D7 (MRA-102, drug sensitive); test: SYBR Green I growth inhibition assay, 3D7; assay type: cell-based; settings: Plasmodium falciparum
Protocol: (§1) Fig. 1. […] (B) SYBR Green–based dose response assays were conducted on early-ring stage parasites (6 hours after invasion). […] 3D7 WT (blue), NF54 (green), drug-resistant strains Dd2 (red), HB3 (black), W2 (gray), and D10-ACP-GFP (purple) lines (Sigmoidal, 4PL, X is concentration, n ≥ 3, nonlinear regression, CI: 95%). (C) Schematic diagram of the development of P. falciparum after two consecutive erythrocytic cycles. The time points at which MED6-189 was introduced are depicted in green. HPS, hours post synchronization. […] The images depict various developmental stages of the parasite’s intraerythrocytic life cycle. Bordered images represent time points when drug was first introduced (n = 3 biological replicates, P < 0.05).
(§2) Detailed information on materials and methods is available in the supplementary materials. […] P. knowlesi assays were quantitatively measured by flow cytometry using SYBR Green I and Mitrotracker Deep Red, as previously described ([84], [85]), on a Beckman Coulter CytoFLEX. […]
(§3) P. falciparum in vitro SYBR green fluorescence-based assays The anti-malarial activity of individual analogues were evaluated in-vitro against P. falciparum 3D7 (MRA-102, drug […]
(§4) green-I based fluorescence assay. Parasite growth rate and stages of development were determined via microscopy through Giemsa-stained smears of the cultures. […]

[3] = test system: P. falciparum; test: Drug-drug interaction (fractional inhibitory concentration, isobologram) assay; assay type: cell-based, Plasmodium falciparum
Text: Fig. 2. […] Nuclei are stained with 4’,6-diamidino-2-phenylindole (DAPI; blue). […] (B) Dose-dependent interactions between MED6-189 (blue) and various antimalarials with known mechanisms of action (red). […] The regression line represents a nonlinear regression (variable slope with four parameters), with significant differences considered if P < 0.05. […] Isobologram curves are expected to be parallel to the diagonal for additive drug pairs, concave for synergistic drug pairs, and convex for antagonistic drug pairs. […] The analysis was performed using a two-way ANOVA, n = 3, with P < 0.05 significance.

[4] = test system: P. falciparum NF54 (MRA-1000); test: SYBR Green I growth inhibition assay, NF54; assay type: cell-based, Plasmodium falciparum; settings: early-ring stage, 72 h exposure
Protocol: as §1, §2, §3, §4

[5] = test system: P. falciparum Pf3D70087/N9; test: In vivo efficacy, standard 4-day test in humanized mouse model of P. falciparum malaria; design: species or system NSG mice engrafted with human erythrocytes; settings: 50 mg/kg orally, once a day for 4 days, from day 3 after infection; by the seventh day
Text: NOD scid gamma (NSG) mice were intravenously engrafted with human red blood cells (hRBCs) daily until the percentage of hRBCs reached ~50%, at which point the mice were infected with 2 × 10^7 P. falciparum–infected erythrocytes.
Peripheral blood from P. falciparum–infected mice was stained with TER-119-phycoerythrin (marker of murine erythrocytes) and SYTO-16 (nucleic acid dye) and then analyzed by flow cytometry (FACSCalibur, BD).
Plasmodium falciparum-infected erythrocytes (P. falciparum Pf3D70087/N9).
The mice were obtained from Charles River Labs, bred specifically for
research and certified pathogen free.
NSG mice were engrafted daily with human red blood cells intravenously injected in a final
volume of 0.7 ml (50% hematocrit). Mice were engrafted during two weeks prior to P. falciparum
infection, mice achieve around 60% of human red blood cells in mice peripheral blood.
P. falciparum infections were performed by intravenous inoculation. All mice were randomly
assigned to their corresponding treatment.
mg/kg per day for four consecutive days. […] In all cases, parasitemia was assessed in samples from peripheral blood obtained at days 3, 4, 5, 6, and 7 after infection. Fresh samples of peripheral blood from P. falciparum-infected mice were stained with TER-119-Phycoerythrine (marker of murine erythrocytes) and SYTO-16 (nucleic acid dye) and then analyzed by flow cytometry (FACSCalibur, BD).

[6] = test system: P. falciparum NF54 gametocytes; test: Gametocyte development (sexual stage phenotype) assay; assay type: cell-based, Plasmodium falciparum; design: gametocytes after high dose: dose or concentration left out as unconfirmed
Text: Parasitemia and sexual stage phenotype analyses To understand the phenotypic effects of […]
exposed to stress induced gametocyte induction followed by treatment with N-acetyl glucosamine (NAG; Sigma-Aldrich) supplemented media for 6-7 days to eliminate remaining asexual parasites.
Upon first signs of gametocyte formation observed through giemsa stained smears (5-7 post stress […]
with 3 biological replicates per condition. Culture media were replaced daily with reintroduction of the drug. Gametocyte parasitemia and proportion of the different sexual blood stages were determined by counting Giemsa-stained blood smears by light microscopy at every 24-hour time

[7] = test system: P. falciparum; settings: several P. falciparum drug-sensitive and drug-resistant strains; earlier study; read-out: IC50 (median inhibitory concentration); cited from earlier work
[8] = Tolerability study and toxicological profile; assay type: in vivo, Male CD1 mouse; settings: for adverse effects (Functional Observational Battery): oral
Protocol: Tolerability studies used Male CD1 (20-22 g Envigo).
Blood samples for analysis were carried out in the Abacus5 junior Vet (Practice CVM S.L.L). Clinical chemistry was performed by mean analysis of whole blood in Vetscan (ABAXIS) and F560 (Menarini) analyzer and by mean analysis of plasma.
Tolerability study Male CD1 (20-22g Envigo) were used in tolerability studies.
All animal studies were ethically reviewed and carried out in accordance with European Directive
were housed in cages (Tecniplast®). The cages contained autoclaved dust free corncob bedding
(Rehofix MK2000, 1.7-2.2 mm particle size) and carry filters covers. Animal maintenance
standard g-irradiated standard rodent diet (Envigo Teklad 2914) and ultra-filtered water was
provided ad libitum. Environmental conditions: Photoperiods, simulated dawn/dusk facility, were
adjusted to 12h of light (300 lux) and 12h darkness daily. The temperature range was 22± 2 °C.
Relative humidity was 55% ± 10 and the air room was changed 15-20 times per hour.
Environmental enrichment included nesting material (nesting cups, LBS), a red-tinted igloo
(Datesand), a hanging clear tunnel (Datesand, and two wood blocks (Datensand).
Protocol design Male CD1 mouse (n=1) was dosed with an initial dose at 100 mg/kg (1-day, oral
route, once a day, 10ml/kg). The animals were observed during the first four hours after
administration and after 24h. The neurobehavioral assessment Functional Observational Battery
the modified symptom-based Up-&-Down method and adjusted a constant factor (1.6). Other male
Two mice were treated at 50
To confirm the data, 3 animals per dose
(100mg/kg and 63.4 mg/kg) and vehicle group with 1% Methylcellulose + 0.5% Tween (n=2) were
dosed. Systemic exposure levels at different times were taken (0.5h, 2h, 4h, 8, 24, 48h) of treated
animals (n=3 per group) and a toxicological profile was performed after 7 days of treatment
(hematology, clinical chemistry, and necropsy). Additionally in the same animals with the same
scheduling sampling, blood samples of 15 uL were taken from lateral tail vein and recovered in a
vial with the same quantity of water, mix and freeze until bioanalytical quantification for the
determination of blood level exposures and pharmacokinetic analysis.
Toxicological Profile The bodyweight of animals was recorded before dosage, 24 hours after and
every day in animals kept for 7 days. Any sign of toxicity was recorded for 4h and 24h hours after
drug administration (Functional Observational Battery). All animals were sacrificed by CO2
inhalation. Blood samples for analysis were then taken by intracardiac puncture and fractionated
to blood recount and serum analysis. The blood recount was carried out in the Abacus5 junior Vet
→ (Practice CVM S.L.L). Clinical chemistry was performed by mean analysis of whole blood in
Vetscan→ (ABAXIS) & F560 (Menarini→) analyzer and by mean analysis of plasma, obtained
after centrifugation at 1800g rpm for 10 min in S-Microvette tubes (Sarstedt→) with Heparin-
Lithium. The plasma parameters tested were: glucose, ALP, AST, ALT, GGT, LDH, AMY, CK
Calcium, Phosphate, Sodium, Potassium, total bilirrubin, total protein, albumin, blood ureic
nitrogen (BUN), creatinine, triglycerides, cholesterol. After necropsy, several organs (liver,
kidney, spleen, Caecum, and stomach) were removed and weighed. Liver, kidney, and spleen were
fixed in formalin (formaldehyde 10%) to further histopathology study (Hematoxilin/Eosin stain).

[9] = test system: HeLa; test: Human cell line activity, HeLa; assay type: cell-based; settings: read-out: IC50 (µM) HeLa
[10] = test system: THP1; test: Human cell line activity, THP1; assay type: cell-based; settings: THP-1, read-out: IC50 (µM) THP1

[C-]#[N+][C@]1(C)CC[C@H]2[C@@H]([C@@H](C(C)C)CC[C@]2(C)[N+]#[C-])[C@H]1O [MED6-189]
IC50 [1]: 26 µM
IC50 ([2]; 3D7, read-out: IC50 (µM) P. falciparum (3D7)): 0.015 µM
IC50 ([2]; 3D7, early-ring stage (6 h after invasion), 72 h exposure, read-out: IC50): 0.014 ± 0.002 µM
FIC score ([3]; MED6-189 in combination with atovaquone (additive)): 0.91 ± 0.2
FIC score ([3]; MED6-189 in combination with chloroquine (additive)): 1.71 ± 0.4
IC50 ([4]; Plasmodium falciparum, NF54, 72 h): 28 ± 5 nM
IC50 [4]: 27 nM
reduction in parasitemia in the peripheral blood [5]: > 90%
(%) Gametocyte MED6-189 (average) ([6]; 300nM, day 1 post drug introduction): 0%
(%) Gametocyte MED6-189 (average) ([6]; 300nM, day 2 post drug introduction): 0.1035%
(%) Gametocyte MED6-189 (average) ([6]; 300nM, day 3 post drug introduction): 0.55%
% Change of gametocytemia ([6]; 300nM, day 4): 100%
(%) Gametocyte MED6-189 (average) ([6]; 300nM, day 4 post drug introduction): 1.5%
(%) Gametocyte MED6-189 (average) ([6]; 300nM, day 5 post drug introduction): 3.175%
(%) Gametocyte MED6-189 (average) ([6]; 300nM, day 6 post drug introduction): 2.102%
(%) Gametocyte MED6-189 (average) ([6]; 300nM, day 7 post drug introduction): 1.15%
(%) Gametocyte MED6-189 (average) ([6]; 300nM, day 8 post drug introduction): 1.35%
(%) Gametocyte MED6-189 (average) ([6]; 300nM, day 9 post drug introduction): 1.25%
inhibition of early gametocyte development vs controls ([6]; 300 nM, stage III: days 4 to 6): ~ 62%
gametocytes after high dose ([6]; early stages of gametocyte development, after 48 hours of drug treatment): no quantifiable gametocytes were observed
effect on mature-stage gametocytes ([6]; stage V): little to no effect
IC50 [7]: < 50 nM
adverse effects (Functional Observational Battery) ([8]; 50 mg/kg, two mice): didn´t show adverse effects
adverse effects (Functional Observational Battery) ([8]; 62.5mg/kg, one mouse): showed adverse effects
adverse effects (Functional Observational Battery) ([8]; 100 mg/kg, once, n=1): Adverse effects were found
adverse events ([8]; doses up to 50 mg/kg): did not exhibit any adverse events
hematology, clinical chemistry, necropsy ([8]; doses up to 50 mg/kg): no significant changes
IC50 [9]: 9.6 µM
IC50 [10]: 12 µM
